Laboratory results published in patent US5962525A, “6,7-disubstituted-2-aminotetralines active as immunomodulators and pharmaceutical compositions containing same” (Sigma-Tau, priority 1990, dated 1999).
Like-named read-outs stand apart in the source and are kept apart here.

What was measured:
[1] = system: murine peritoneal exudate cells (PEC); assay: "In vitro-ex vivo" effect on the phagocytic activity of exudate peritoneal cells (SRBC phagocytosis); set-up: species or system mouse (B6 D2 F1); details: 25 mg/kg/day i.p.
Experimental: Assessment of the "in vitro-ex vivo" effect of ST 557, ST 563, ST 564, ST 570, ST 608 and ST 626 on the phagocytic activity of exudate peritoneal cells (PEC)
Male B6 D2 F1 mice aged 6-8 weeks (5 animals each group) were used.
The compounds were administered i.p. (25 mg/kg/day), ST 557, ST 563 and ST 626 were also administered per os (100 mg/kg/day) from day -5 to day -1 (PEC harvesting at day 0).
The experimental procedure was substantially the same as that described by Williams et al., in "Methods in Immunology and Immunochemistry", Acad. Press. 5: 261 (1976).
In particular, 24 hours following the end of the treatment, PECs from each experimental group were harvested, pooled and their concentration was adjusted to 4×10^6 cells/ml.
To volumes of 250 μl of each PEC sample were added equal volumes of 0.4% SRBC (Sheep Red Blood Cells) opsonized with hyperimmune serum.
The samples (duplicate) were incubated for 1 hour and then subjected to hypotonic shock in order to remove the non-phagocytized SRBC. After restoring the osmolarity, the phagocytes were cytocentrifuged, stained with a differential dye and observed under the microscope.
The results were expressed as:
(a) percentage of cells that have phagocytized with respect to 100 phagocytizing cells;
(b) total number of phagocytized SRBC;
(c) average number of SRBC in each phagocyte.

splenocytes = assay: "In vitro-ex vivo" effect on the mytogen (PHA, ConA, LPS)-induced splenocyte proliferation in mice immunodepressed with cyclophosphamide; set-up: species or system mouse (B6 D2 F1); details: for S.I. (stimulation index): with respect to the immunodepressed controls; for AUC (area under curve): immunodepressed
Experimental: Assessment of the "in vitro-ex vivo" effect of ST 557, ST 563 ST 564 on the mytogen (PHA, ConA, LPS)-Induced splenocyte proliferation in mice Immunodepressed with cyclotohosphamide
Male B6 D2 F1 mice aged 7-9 weeks (5 mice per group) were used.
The immunosuppressor (cyclophosphamide) was administered i.p. at the dose of 100 mg/kg at day -5. The compounds were administered i.p. (25 mg/kg/day) and per os (100 mg/kg/day) from day -5 to day -1 (spleen excision at day 0).
Splenocyte proliferation was induced by three different mytogens: PHA and ConA active on T-lymphocytes, and LPS active on B-lymphocytes. Each mytogen was tested at three different concentrations (suboptimal, optimal and superoptimal) corresponding to 0.5, 4 and 6 mcg/ml/well for PHA; 0.5, 4 and 8 mcg/ml/well for ConA and 0.5, 150 and 500 mcg/ml/well for LPS.
The experimental procedure is identical to that described in test 4.
The results are expressed as both AUC (see test 4) and S.I. In order to assess the efficacy of the immunosuppressor and the activity of the tested compounds, S.I. has been determined both for the immunodepressed controls (with respect to the normal controls) and for the immunodepressed treated animals (with respect to the immunodepressed controls), respectively. [formula]

[2] = Tolerability after oral or intravenous administration; set-up: species or system mouse (Swiss albino); details: mouse, in vivo, 7 days observation, read-out: Tolerability, dose
Experimental: The test was conducted in male Swiss albino mice weighing 22-24 g.
A group of animals (4 animals/dose) which had been kept fasting for 18 hours, were orally administered the compounds ST 557, ST 563, ST 564 and ST 570 dissolved in twice distilled water.
A further group of animals, which had free access to food and water, were administered intravenously the same compounds dissolved in saline it pH 7. All the animals were kept under observation for 7 days.

LD50, intravenous = details: mouse, in vivo, 0.9% saline
Experimental: LD50 was determined according to Carrol S. Weil's method, Biometrics, pages 249-263 (1952) in male Swiss albino mice weighing 22-24 g.
The various compounds dissolved in 0.9% saline were administered intravenously.

## COc1ccc(OCC(O)CNC2CCc3cc(OC)c(OC)cc3C2)cc1 (stereo not shown) [ST 564, 2-[(N-2-hydroxy-3-(4-methoxyphenoxy)propyl)amino]-6,7-dimethoxytetraline]
[1]
  Fagocytizing cells: 40.0%
  Total n° SRBC phagocytized: 126.6
[1]; average number of SRBC in each phagocyte
  SRBC per phagocytizing cell: 3.2
splenocytes; ConA, 25 mg/kg/day i.p.
  S.I. (stimulation index): 1.01
  AUC (area under curve): 514 ± 10 ×10^-3
splenocytes; ConA, 100 mg/kg/day os
  S.I. (stimulation index): 0.78
  AUC (area under curve): 577 ± 41 ×10^-3
splenocytes; LPS, 25 mg/kg/day i.p.
  S.I. (stimulation index): 2.74
  AUC (area under curve): 2533 ± 314 ×10^-3
splenocytes; LPS, 100 mg/kg/day os
  S.I. (stimulation index): 0.65
  AUC (area under curve): 3023 ± 257 ×10^-3
splenocytes; PHA, 25 mg/kg/day i.p.
  S.I. (stimulation index): 2.05
  AUC (area under curve): 205 ± 18 ×10^-3
[2]; iv
  MTD at 168 h: > 20 mg/kg
[2]; po, os, fasting 18 hours
  MTD at 168 h: > 50 mg/kg
LD50, intravenous
  LD50: 44.5 mg/kg
